The results in this text go back to ChEMBL document CHEMBL6074632, “Next-generation EGFR tyrosine kinase inhibitors to overcome C797S mutation in non-small cell lung cancer (2019-2024)” (RSC Med Chem, 2024).

A value given as a limit tells only on which side of the number the result lay.

Data set [1] is described as follows: Inhibition of EGFR L858R/T790M double mutant (unknown origin). On the set-up: species or system Homo sapiens.
For data set [2], the target named is Epidermal growth factor receptor (Homo sapiens, UniProt P00533, C797S/L858R/T790M). Kind of data set: Inhibition of EGFR L858R/T790M/C797S mutant (unknown origin).
A short description of data set [3]: Antiproliferative activity against mouse BaF3 cells harboring EGFR L858R/T790M double mutant assessed as inhibition of cell growth.
Data set [4] in a line: PROTAC activity at CRBN/EGFR L858R/T790M double mutant in human HCC827 cells assessed as induction of EGFR degradation. The class given is cell-based.
For data set [5], the target named is von Hippel-Lindau disease tumor suppressor/Epidermal growth factor receptor (Homo sapiens, UniProt P00533+P40337, L858R). Kind of data set: PROTAC activity at VHL/EGFR L858R mutant in human NCI-H3255 cells assessed as induction of EGFR degradation incubated for 24 hrs by immunoblotting analysis. The class given is cell-based.
Data set [6] relates to BaF3. Kind of data set: Antiproliferative activity against mouse BaF3 cells harboring EGFR C797S/T790M/del19 mutant assessed as growth inhibition incubated for 72 hrs by CellTiter-Glo assay. The class given is functional, cell-based. As to conditions: BaF3, 72 h.
Data set [7] in a line: Antiproliferative activity against human NCI-H1975 cells harboring EGFR L858R/T790M double mutant assessed as inhibition of cell growth incubated for 72 hrs by CellTiter-Glo assay. As to conditions: NCI-H1975, 72 h. The class given is functional, cell-based. For orientation: Cellular ATP, detected with luciferase, serves as a proxy for viable cell number.
The nature of data set [8]: Oral bioavailability in rat. As to conditions: in vivo.
Data set [9] can be described thus: Antiproliferative activity against human NCI-H1975 cells harboring EGFR L858R/T790M/C797S […] mutant assessed as inhibition of cell growth. The class given is functional, cell-based.
Data set [10] can be described thus: Intrinsic clearance in human liver microsomes. The class given is ADME, Microsome. (In general: Liver microsomes are vesicles of endoplasmic reticulum, rich in cytochrome P450 enzymes.)
A short description of data set [11]: Intrinsic clearance in human hepatocytes. The class given is ADME, cell-based, Hepatocyte.
Data set [12] can be described thus: Intrinsic clearance in rat liver microsomes. The class given is ADME, Microsome.
The test system of data set [13] is BaF3. Kind of data set: Antiproliferative activity against mouse BaF3 cells harboring EGFR L858R/T790M/C797S mutant assessed as growth inhibition incubated for 72 hrs by CellTiter-Glo assay. The class given is functional, cell-based. The conditions noted are these: BaF3, 72 h.
Data set [14] has as its target Epidermal growth factor receptor (Homo sapiens, UniProt P00533, C797S/EX19DEL/T790M). Briefly: Inhibition of EGFR C797S/T790M/Del19 mutant (unknown origin).
The target of data set [15] is Epidermal growth factor receptor (Homo sapiens, UniProt P00533). Kind of data set: Inhibition of wild type EGFR (unknown origin).
Data set [16] deals with NCI-H1975. Kind of data set: Antitumor activity against human NCI-H1975 cells xenografted in mouse model assessed as tumor growth inhibition at 40 mg/kg, po relative to control. Type of data set: functional. As to conditions: read-out: TGI. On the technique in general: A xenograft is tissue or cells of one species grown in another, often human tumour cells in immunodeficient mice.

The subject of data set [17] is NCI-H1975. Briefly: Antitumor activity against human NCI-H1975 cells xenografted in mouse model assessed as tumor growth inhibition at 80 mg/kg, po relative to control. Type of data set: functional. The conditions noted are these: read-out: TGI.

Sequence of Epidermal growth factor receptor (Homo sapiens, UniProt P00533) (P00533 whole entry): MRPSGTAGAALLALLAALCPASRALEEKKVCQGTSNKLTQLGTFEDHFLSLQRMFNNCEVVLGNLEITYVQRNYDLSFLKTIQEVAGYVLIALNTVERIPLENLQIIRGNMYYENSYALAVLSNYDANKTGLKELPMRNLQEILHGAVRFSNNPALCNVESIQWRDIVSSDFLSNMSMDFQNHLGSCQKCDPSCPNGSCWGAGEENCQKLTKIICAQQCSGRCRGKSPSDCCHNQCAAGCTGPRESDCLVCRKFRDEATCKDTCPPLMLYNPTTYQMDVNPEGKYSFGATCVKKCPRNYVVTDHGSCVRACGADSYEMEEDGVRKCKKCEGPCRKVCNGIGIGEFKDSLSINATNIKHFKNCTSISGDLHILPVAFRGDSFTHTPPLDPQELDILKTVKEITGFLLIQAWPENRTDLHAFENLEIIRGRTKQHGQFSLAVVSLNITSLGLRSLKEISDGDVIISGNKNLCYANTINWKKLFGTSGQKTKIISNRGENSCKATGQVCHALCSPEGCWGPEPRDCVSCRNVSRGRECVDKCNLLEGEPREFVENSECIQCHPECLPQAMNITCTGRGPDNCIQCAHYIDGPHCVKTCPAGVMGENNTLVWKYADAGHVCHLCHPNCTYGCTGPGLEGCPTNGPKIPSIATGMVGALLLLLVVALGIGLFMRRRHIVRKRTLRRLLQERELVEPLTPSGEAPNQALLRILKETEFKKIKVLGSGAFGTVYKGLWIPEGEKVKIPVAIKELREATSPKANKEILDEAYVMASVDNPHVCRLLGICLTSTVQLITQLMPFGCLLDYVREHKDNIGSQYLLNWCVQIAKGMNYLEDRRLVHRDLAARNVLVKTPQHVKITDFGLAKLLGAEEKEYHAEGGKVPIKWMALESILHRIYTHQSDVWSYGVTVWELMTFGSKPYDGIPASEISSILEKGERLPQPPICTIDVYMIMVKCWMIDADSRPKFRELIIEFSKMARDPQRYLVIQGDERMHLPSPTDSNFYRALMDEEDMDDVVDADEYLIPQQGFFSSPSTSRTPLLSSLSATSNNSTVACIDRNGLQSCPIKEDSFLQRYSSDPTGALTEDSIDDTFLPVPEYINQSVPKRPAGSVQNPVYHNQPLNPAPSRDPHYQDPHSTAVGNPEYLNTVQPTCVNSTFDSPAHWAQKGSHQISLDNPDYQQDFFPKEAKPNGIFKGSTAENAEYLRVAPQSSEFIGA
Sequence of Epidermal growth factor receptor (Homo sapiens, UniProt P00533, C797S/EX19DEL/T790M) (P00533 whole entry, looked up, stated change not applied): as the sequence (P00533 whole entry) above
Sequence of Epidermal growth factor receptor (Homo sapiens, UniProt P00533, C797S/L858R/T790M) (P00533 25-1210 T790M/C797S/L858R limits assumed): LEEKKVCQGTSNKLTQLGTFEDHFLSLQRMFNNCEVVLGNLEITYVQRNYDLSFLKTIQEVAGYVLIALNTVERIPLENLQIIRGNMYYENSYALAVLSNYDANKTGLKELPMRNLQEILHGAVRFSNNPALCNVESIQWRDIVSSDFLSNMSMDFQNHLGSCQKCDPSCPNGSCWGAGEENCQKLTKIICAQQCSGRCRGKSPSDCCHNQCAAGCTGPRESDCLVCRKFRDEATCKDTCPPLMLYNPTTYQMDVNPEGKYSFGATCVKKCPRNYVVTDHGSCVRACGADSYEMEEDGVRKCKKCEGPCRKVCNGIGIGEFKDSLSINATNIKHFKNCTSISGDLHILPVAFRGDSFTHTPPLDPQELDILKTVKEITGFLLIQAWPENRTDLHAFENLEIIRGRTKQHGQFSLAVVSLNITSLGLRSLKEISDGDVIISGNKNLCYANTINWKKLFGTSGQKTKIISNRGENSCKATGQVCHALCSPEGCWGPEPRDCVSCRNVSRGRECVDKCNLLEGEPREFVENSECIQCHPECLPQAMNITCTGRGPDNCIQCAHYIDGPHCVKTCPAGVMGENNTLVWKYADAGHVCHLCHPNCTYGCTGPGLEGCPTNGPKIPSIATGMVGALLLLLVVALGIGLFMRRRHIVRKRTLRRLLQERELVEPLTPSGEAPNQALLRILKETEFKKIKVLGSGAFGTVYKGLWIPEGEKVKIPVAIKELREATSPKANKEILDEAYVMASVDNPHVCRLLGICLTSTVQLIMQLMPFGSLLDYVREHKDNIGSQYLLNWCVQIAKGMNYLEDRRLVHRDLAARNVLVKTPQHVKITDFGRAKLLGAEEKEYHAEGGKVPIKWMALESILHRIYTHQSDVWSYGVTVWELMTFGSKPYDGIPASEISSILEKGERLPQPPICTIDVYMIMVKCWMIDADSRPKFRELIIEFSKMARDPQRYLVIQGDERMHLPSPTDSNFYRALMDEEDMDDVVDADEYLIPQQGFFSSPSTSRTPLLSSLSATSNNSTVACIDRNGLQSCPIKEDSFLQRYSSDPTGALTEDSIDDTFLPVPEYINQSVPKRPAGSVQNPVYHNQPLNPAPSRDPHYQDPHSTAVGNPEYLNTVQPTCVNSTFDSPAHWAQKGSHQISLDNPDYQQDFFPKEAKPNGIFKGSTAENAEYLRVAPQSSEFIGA
Sequence of von Hippel-Lindau disease tumor suppressor/Epidermal growth factor receptor (P00533 25-1210 L858R limits assumed, stated change not applied): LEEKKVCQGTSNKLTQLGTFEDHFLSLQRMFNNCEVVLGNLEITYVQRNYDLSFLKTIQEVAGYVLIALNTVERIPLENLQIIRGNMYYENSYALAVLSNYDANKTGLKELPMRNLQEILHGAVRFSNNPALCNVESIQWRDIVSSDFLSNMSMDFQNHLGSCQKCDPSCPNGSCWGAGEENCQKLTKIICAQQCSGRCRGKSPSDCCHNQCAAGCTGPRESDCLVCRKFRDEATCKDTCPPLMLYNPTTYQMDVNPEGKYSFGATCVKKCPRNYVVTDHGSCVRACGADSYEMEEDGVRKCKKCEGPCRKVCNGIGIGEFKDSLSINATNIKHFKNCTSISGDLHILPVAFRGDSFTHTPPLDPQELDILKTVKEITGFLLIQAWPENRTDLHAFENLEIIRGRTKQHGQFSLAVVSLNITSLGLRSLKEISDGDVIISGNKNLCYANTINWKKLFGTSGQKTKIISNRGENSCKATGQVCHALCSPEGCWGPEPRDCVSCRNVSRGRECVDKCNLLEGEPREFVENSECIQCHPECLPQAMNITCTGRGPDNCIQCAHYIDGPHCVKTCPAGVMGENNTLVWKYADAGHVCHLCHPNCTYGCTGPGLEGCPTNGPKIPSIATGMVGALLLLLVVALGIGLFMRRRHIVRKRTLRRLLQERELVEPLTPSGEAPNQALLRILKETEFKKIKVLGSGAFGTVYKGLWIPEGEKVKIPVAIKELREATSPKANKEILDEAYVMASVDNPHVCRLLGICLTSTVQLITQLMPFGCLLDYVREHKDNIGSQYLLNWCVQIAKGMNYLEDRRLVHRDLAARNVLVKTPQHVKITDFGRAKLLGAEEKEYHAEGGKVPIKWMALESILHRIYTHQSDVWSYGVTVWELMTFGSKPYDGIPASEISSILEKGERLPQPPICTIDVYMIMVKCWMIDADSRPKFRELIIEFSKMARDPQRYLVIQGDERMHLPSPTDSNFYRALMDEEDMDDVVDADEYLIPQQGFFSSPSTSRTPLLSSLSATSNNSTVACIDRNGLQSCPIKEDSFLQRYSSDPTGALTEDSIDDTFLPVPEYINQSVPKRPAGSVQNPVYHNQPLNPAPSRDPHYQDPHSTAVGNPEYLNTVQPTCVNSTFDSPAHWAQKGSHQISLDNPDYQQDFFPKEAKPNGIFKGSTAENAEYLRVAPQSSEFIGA
Sequence of von Hippel-Lindau disease tumor suppressor/Epidermal growth factor receptor (P40337 whole entry, stated change not applied): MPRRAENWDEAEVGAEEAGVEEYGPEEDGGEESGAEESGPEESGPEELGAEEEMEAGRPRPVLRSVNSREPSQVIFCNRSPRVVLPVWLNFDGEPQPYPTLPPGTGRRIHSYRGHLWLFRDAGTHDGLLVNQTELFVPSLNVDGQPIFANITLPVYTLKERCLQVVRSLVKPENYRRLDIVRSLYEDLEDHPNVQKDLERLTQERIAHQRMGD

The IC50 is the concentration at which inhibition is half-maximal. In [1], `O=C(Nc1nccs1)C(c1cc(F)ccc1O)N1Cc2ccccc2C1=O` (centres undefined) registered an IC50 of 3 nM.
The molecule `COc1cc2c(Nc3ccc(NC(=O)C(c4cc(F)ccc4F)N4Cc5ccccc5C4=O)cc3F)ncnc2cc1OCC1CCN(C)CC1` (centres undefined) showed an IC50 in data set [2] of 2.3 nM.
As to `O=C1CCC(N2C(=O)c3cccc(NCCOCCOCCOCCN4CCN(c5ccc(-c6ccc7c(c6)C(=O)N(C(C(=O)Nc6nccs6)c6ccccc6)C7)cn5)CC4)c3C2=O)C(=O)N1` (centres undefined), the half-maximal inhibitory concentration (IC50) in data set [3] is 96 nM.
As usually defined, the DC50 is the concentration at which degradation of the target reaches its halfway point. For the molecule `COc1cc2ncnc(Nc3ccc(F)c(Cl)c3)c2cc1OCCCN1CCN(CCC(=O)NCCCCCCCCOc2cccc3c2C(=O)N(C2CCC(=O)NC2=O)C3=O)CC1` (centres undefined), in data set [4], the DC50 turned out to be 5 nM.
With `COc1cc(N2CCN(CCCCCCCC(=O)N[C@H](C(=O)N3C[C@H](O)C[C@H]3C(=O)N[C@@H](C)c3ccc(-c4scnc4C)cc3)C(C)(C)C)CC2)ccc1Nc1ncc(Cl)c(Nc2ccccc2P(C)(C)=O)n1`, the DC50 in [5] is 8 nM.
Consider `COc1cc(N2CCC(N3CCN(C)CC3)CC2)c(C)cc1Nc1ncc(Br)c(Nc2ccc3nccnc3c2P(C)(C)=O)n1`, for which the IC50 in the data set on BaF3 [6] came out at 26.8 nM.
What is called bioavailability is the share of a dose that reaches the circulation, judged against a reference dose that is usually intravenous. A high value points to much systemic uptake. Take `CC(C)c1cnc(N2CC(CS(C)(=O)=O)C2)c2cnc(Nc3ccnc(N4CC[C@@H](O)[C@@](C)(F)C4)n3)cc12`: the IC50 in data set [7] was 4.8 nM. The bioavailability in data set [8] was determined as 2%.
`N#Cc1ccc(O)c(-c2nc(NCc3ncccn3)c3ccccc3n2)c1`: the IC50 in data set [9] was determined as 1200 nM.
As to `CC(C)c1ccc(N2C[C@H](CS(C)(=O)=O)[C@H]2C)c2cnc(Nc3ccnc(N4CC[C@@H](O)[C@@](C)(F)C4)n3)cc12`, the figures for the CLint in data set [10], in data set [11] and in data set [12] were 7.2 µL/min/mg, 41 µL/min/1e6 cells and 43 µL/min/mg, respectively. For the same molecule, the IC50 in data set [7] stood at 1 nM. Besides, the bioavailability in [8] came to 50%.
`CN1CCC(c2ccc(-c3ccc4c(c3)C(=O)N(C(C(=O)Nc3nccs3)c3cc(F)ccc3O)C4)cc2)CC1` (centres undefined): in data set [1], 0.063 nM corresponded to half-maximal inhibition (IC50).
Turning to `CC(C)c1ccc(N2CC(CS(C)(=O)=O)C2)c2cnc(Nc3ccnc(N4CC[C@@H](O)[C@@](C)(F)C4)n3)cc12`, the IC50 in [7] stood at 2.7 nM. The same molecule yielded a bioavailability in data set [8] of 85%.
For the molecule `CN1CCN(c2ccc(Nc3ncc(Cl)c(Nc4ccccc4P(C)(C)=O)n3)cc2Br)CC1`, the results for the 50% inhibitory concentration (IC50) with BaF3 [6] and in the data set with BaF3 [13] were 90 nM and 120 nM, respectively.
With `Oc1ccccc1-c1nc(NCN2CCOCC2)c2ccccc2n1`, the half-inhibitory concentration (IC50) in data set [14] amounted to 1730 nM; in data set [15] it was 37100 nM.
The corresponding values for `Oc1ccccc1-c1nc(NCc2c[nH]cn2)c2ccccc2n1` are 4.84 nM and above 50000 nM.
The corresponding values for `Cn1cnc(Nc2nc(-c3ccccc3O)nc3ccccc23)c1` are 3.38 nM and above 50000 nM.
Consider `[2H]C([2H])([2H])c1cc(Nc2ncc(Br)c(Nc3ccccc3S(=O)(=O)C3CC3)n2)ccc1N1CCN(C([2H])([2H])[2H])CC1`, for which the IC50 in the data set with BaF3 [6] was determined as 12 nM; in the data set with BaF3 [13] it was 16 nM; in data set [2], 0.09 nM. In addition, the inhibition in vivo at 40 mg/kg with NCI-H1975 [16] turned out to be 75.1%.
As to `Oc1ccc(Br)cc1-c1nc(NCc2ncccn2)c2ccccc2n1`, the results for the IC50 in data set [2] and in data set [9] were 440 nM and 12600 nM, respectively.
Take `Cc1cc(Nc2ncc(Br)c(Nc3ccccc3S(=O)(=O)C3CC3)n2)ccc1N1CCN(C)CC1`: in the data set with NCI-H1975 [17], the inhibition in vivo at 80 mg/kg was found to be 73.2%.
For the molecule `CO[C@@H]1CCN(c2nccc(Nc3cc4c(C(C)C)ccc(N5C[C@H](CS(C)(=O)=O)[C@H]5C)c4cn3)n2)C[C@@H]1F` [TIGOZERTINIB], in [7], the IC50 stood at 1.1 nM. Moreover, the bioavailability in data set [8] is 48%.
